Test results taken from US9440969B2, “Compounds and methods for kinase modulation, and indications therefor” (PLEXXIKON INC., priority 2009, dated 2016).

What was measured:
c-Raf-1 = c-Raf-1 (Homo sapiens, UniProt P04049); test: c-Raf-1 kinase activity assay (AlphaScreen, biotin-MEK1 substrate); settings: 100 μM ATP, 100 nM biotin-MEK1, 45 minutes at room temperature; read-out: Biochemical activity (IC50 μM) c-Raf-1
Method: (§1) Assays for biochemical and cell based activity are known in the art, for example, as described in PCT publication WO 2007/002433, the disclosure of which is hereby incorporated by reference as it relates to such assays. For example, the biochemical activity IC50 values are determined with respect to inhibition of B-Raf kinase activity, c-Raf-1 kinase activity, or B-Raf V600E kinase activity, where inhibition of phosphorylation of a peptide substrate is measured as a function of compound concentration. Compounds to be tested are diluted in dimethyl sulfoxide to a concentration of 0.1 mM. These are serially diluted 15 μL into 30 μL of dimethyl sulfoxide seven times in 96 well plates for a total of 8 dilution points, and for each dilution point 1 μL is added to a well of an assay plate. Plates are prepared such that each well in a 384 well plate contains 1 μL of compound in 10 μL, volume with 0.1 ng Raf enzyme (i.e. any of B-Raf, c-Raf-1 or B-Raf V600E, Upstate Biotechnology or prepared by methods known to one of skill in the art), 50 mM HEPES, pH 7.0, 50 mM NaCl, 2 mM MgCl2, 1 mM MnCl2, 0.01% Tween-20, 1 mM DTT, and 100 nM biotin-MEK1 as substrate. The reaction is started with addition of 10 μL of 200 μM ATP (i.e. final 100 μM ATP). After incubation of the kinase reaction for 45 minutes at room temperature, 5 μL/well of Stop Solution is added (25 mM Hepes pH 7.5, 100 mM EDTA, 0.01% BSA with donor beads (Streptavidin coated beads, Perkin Elmer), acceptor beads (Protein A coated, Perkin Elmer), and anti phosphor MEK1/2 antibody (CellSignal), each at final concentration 10 μg/mL). The plates are incubated for 3 hours at room temperature and read on Envision reader (Perkin Elmer). Phosphorylation of Mek1 results in binding of the anti-phosphor-MEK1/2 antibody and association of the donor and acceptor beads such that signal correlates with kinase activity. The signal vs. compound concentration is used to determine the IC50.

B-Raf V600E = B-Raf V600E (Homo sapiens, UniProt P15056, V600E); test: B-Raf V600E kinase activity assay (AlphaScreen, biotin-MEK1 substrate); settings: 100 μM ATP, 100 nM biotin-MEK1, 45 minutes at room temperature, read-out: Biochemical activity (IC50 μM) V600E
B-Raf V600E, sequence (P15056 whole entry V600E): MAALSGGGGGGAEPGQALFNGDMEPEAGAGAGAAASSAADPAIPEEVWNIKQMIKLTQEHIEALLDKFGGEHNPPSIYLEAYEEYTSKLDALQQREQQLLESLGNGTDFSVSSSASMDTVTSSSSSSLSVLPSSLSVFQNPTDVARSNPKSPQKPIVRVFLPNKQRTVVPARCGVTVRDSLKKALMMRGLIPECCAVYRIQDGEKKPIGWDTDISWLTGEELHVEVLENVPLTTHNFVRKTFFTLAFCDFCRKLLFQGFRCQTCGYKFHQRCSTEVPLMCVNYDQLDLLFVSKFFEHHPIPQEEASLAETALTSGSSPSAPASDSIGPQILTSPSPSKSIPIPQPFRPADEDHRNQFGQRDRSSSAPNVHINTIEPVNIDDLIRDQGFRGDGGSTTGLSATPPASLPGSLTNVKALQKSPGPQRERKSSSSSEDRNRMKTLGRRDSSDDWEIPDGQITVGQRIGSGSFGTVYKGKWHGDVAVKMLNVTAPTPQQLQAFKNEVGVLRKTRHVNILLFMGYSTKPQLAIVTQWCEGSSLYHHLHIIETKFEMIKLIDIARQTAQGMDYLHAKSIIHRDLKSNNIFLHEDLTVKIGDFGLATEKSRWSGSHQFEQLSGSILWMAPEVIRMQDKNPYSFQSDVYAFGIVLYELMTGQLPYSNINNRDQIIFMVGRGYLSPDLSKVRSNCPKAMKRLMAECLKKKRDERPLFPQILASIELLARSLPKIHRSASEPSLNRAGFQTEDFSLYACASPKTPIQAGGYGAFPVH
Method: as §1

B-Raf = B-Raf (Homo sapiens, UniProt P15056); test: B-Raf kinase activity assay (AlphaScreen, biotin-MEK1 substrate); settings: 100 μM ATP, 100 nM biotin-MEK1, 45 minutes at room temperature; read-out: Biochemical activity (IC50 μM) B-Raf
B-Raf, sequence (P15056 whole entry): as the sequence (P15056 whole entry V600E) above, with E600V counted along it
Method: as §1

[1] = Relative solubility by turbidity in aqueous buffers (pH 1.5, 4.5, 6.8, 7.4); format: physicochemical
Method: As an indication of relative solubility, the turbidity of compounds in aqueous solutions is assessed. To assess possible compound properties in different physiological compartments, such as stomach, intestine, and blood, a series of aqueous buffers with varying pH is used. Thus each compound is diluted into four different physiologically relevant buffers and solution turbidity is measured by spectrophotometry.
Compounds are dissolved at a concentration of 25 mM in dimethyl sulfoxide, then serially diluted 1:1 into a 96 well plate, diluting 10 times in pure dimethyl sulfoxide, with the final well of each row a dimethyl sulfoxide blank. In an assay plate, 99 μL of appropriate buffer is added to each well, and 1 μL of each sample dilution is added to the buffer, achieving a range of final total concentrations in aqueous solutions having different pH. The buffers used are Simulated Gastric Fluid (SGF-pH 1.5) 0.5M NaCl, pH 1.5; Simulated Intestinal fluid (SIF-pH 4.5 and pH 6.8) 0.05M NaH2PO4, pH 4.5 and 6.8; and Hepes Buffer (HEPES-pH 7.4) 10 mM HEPES, 150 mM NaCl, pH 7.4. Control compounds pyrene, estriol and propranolol HCl are also assessed. Plates are spun and then mixed for 1 minute, and the absorbance is read using a Tecan Safire II to read wavelengths in the visible range (490, 535, and 650 nm) at four locations per well, reflecting the degree of turbidity present. The average optical density for each wavelength in each well is graphed vs. compound concentration, and the concentration at which the curve crosses a threshold O.D. of 0.01 for each wavelength is reported as the endpoint turbidity assay result. The average of the three wavelengths is used to compare turbidity of compounds. Compounds are considered to have low solubility if the threshold concentration is <31.3 μM, moderate solubility if the threshold concentration is 31.3 μM to 250 μM, and high solubility if the threshold concentration is >250 μM.
The following table indicates the relative solubility (L=low, M=moderate, H=high) based on turbidity threshold concentration at each pH for exemplary compounds according to the invention: […]

c-Raf-1, sequence (P04049 whole entry Y340D/Y341D, form open): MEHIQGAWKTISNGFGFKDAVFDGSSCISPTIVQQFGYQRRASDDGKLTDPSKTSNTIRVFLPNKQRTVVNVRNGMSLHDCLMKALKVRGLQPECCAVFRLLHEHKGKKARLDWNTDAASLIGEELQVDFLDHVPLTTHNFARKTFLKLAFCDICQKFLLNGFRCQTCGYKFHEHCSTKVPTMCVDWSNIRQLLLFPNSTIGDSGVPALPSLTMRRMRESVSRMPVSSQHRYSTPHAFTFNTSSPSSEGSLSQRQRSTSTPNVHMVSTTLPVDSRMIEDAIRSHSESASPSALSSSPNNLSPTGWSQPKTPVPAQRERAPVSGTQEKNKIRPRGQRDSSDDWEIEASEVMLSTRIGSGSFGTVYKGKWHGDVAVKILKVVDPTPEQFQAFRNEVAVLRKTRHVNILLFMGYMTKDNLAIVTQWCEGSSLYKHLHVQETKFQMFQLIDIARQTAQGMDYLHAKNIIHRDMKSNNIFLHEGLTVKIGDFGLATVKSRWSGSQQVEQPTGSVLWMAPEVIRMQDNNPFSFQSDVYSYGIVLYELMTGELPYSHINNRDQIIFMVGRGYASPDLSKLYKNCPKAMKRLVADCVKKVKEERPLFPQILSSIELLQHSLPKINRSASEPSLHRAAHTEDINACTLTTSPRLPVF

SMILES	IC50 (c-Raf-1)	IC50 (B-Raf V600E)	IC50 (B-Raf)	turbidity threshold (L, M, H) 1.4 ([1]; pH 1.5 buffer (SGF))	turbidity threshold (L, M, H) 4.5 ([1]; pH 4.5 buffer (SIF))	turbidity threshold (L, M, H) 6.8 ([1]; pH 6.8 buffer (SIF))	turbidity threshold (L, M, H) 7.4 ([1]; pH 7.4 buffer (HEPES))
CCCS(=O)(=O)Nc1ccc(F)c(C(=O)c2c[nH]c3ncc(-c4ccc5ncncc5c4)cc23)c1F [P-0026, Propane-1-sulfonic acid [2,4-difluoro-3-(5-quinazolin-6-yl-1H-pyrrolo[2,3-b]pyridine-3-carbonyl)-phenyl]-amide]	< 0.1 µM	< 0.1 µM	< 0.1 µM				
O=C(c1c(F)ccc(NS(=O)(=O)c2cc(F)ccc2F)c1F)c1c[nH]c2ncc(-c3ccncc3)cc12 [P-1403, N-[2,4-Difluoro-3-(5-pyridin-4-yl-1H-pyrrolo[2,3-b]pyridine-3-carbonyl)-phenyl]-2,5-difluoro-benzenesulfonamide]	< 0.1 µM	< 0.1 µM	< 0.1 µM				
CCCS(=O)(=O)Nc1ccc(F)c(C(=O)c2c[nH]c3ncc(-c4c(C)nn(-c5nnn[nH]5)c4C)cc23)c1F [P-1006, Propane-1-sulfonic acid (3-{5-[3,5-dimethyl-1-(1H-tetrazol-5-yl)-1H-pyrazol-4-yl]-1H-pyrrolo[2,3-b]pyridine-3-carbonyl}-2,4-difluoro-phenyl)-amide]	< 0.1 µM	< 0.1 µM	< 0.1 µM				
CONC(=O)c1ccc(-c2cnc3[nH]cc(C(=O)c4c(F)ccc(NS(=O)(=O)c5cc(F)ccc5F)c4F)c3c2)cc1 [P-1705, 4-{3-[3-(2,5-Difluoro-benzenesulfonylamino)-2,6-difluoro-benzoyl]-1H-pyrrolo[2,3-b]pyridin-5-yl}-N-methoxy-benzamide]	< 0.1 µM	< 0.1 µM	< 0.1 µM	M (moderate solubility if the threshold concentration is 31.3 μM to 250 μM)	L (low solubility if the threshold concentration is <31.3 μM)	L (low solubility if the threshold concentration is <31.3 μM)	L (low solubility if the threshold concentration is <31.3 μM)
Cn1cc(-c2cnc3[nH]cc(C(=O)c4c(F)ccc(NS(=O)(=O)c5cc(F)ccc5F)c4F)c3c2)cn1 [P-1009, N-{2,4-Difluoro-3-[5-(1-methyl-1H-pyrazol-4-yl)-1H-pyrrolo[2,3-b]pyridine-3-carbonyl]-phenyl}-2,5-difluoro-benzenesulfonamide]	< 0.1 µM	< 0.1 µM	< 0.1 µM				
CCCS(=O)(=O)Nc1ccc(F)c(C(=O)c2c[nH]c3ncc(-c4cnc(-n5cccn5)s4)cc23)c1F [P-1109, Propane-1-sulfonic acid {2,4-difluoro-3-[5-(2-pyrazol-1-yl-thiazol-5-yl)-1H-pyrrolo[2,3-b]pyridine-3-carbonyl]-phenyl}-amide]	< 0.1 µM	< 0.1 µM	< 0.1 µM				
CCCS(=O)(=O)Nc1ccc(F)c(C(=O)c2c[nH]c3ncc(-c4c(C)nn(S(=O)(=O)c5cn(C)nc5C)c4C)cc23)c1F [P-1007, Propane-1-sulfonic acid (3-{5-[1-(1,3-dimethyl-1H-pyrazole-4-sulfonyl)-3,5-dimethyl-1H-pyrazol-4-yl]-1H-pyrrolo[2,3-b]pyridine-3-carbonyl}-2,4-difluoro-phenyl)-amide]	< 0.1 µM	< 0.1 µM	< 0.1 µM				
CCCS(=O)(=O)Nc1ccc(F)c(C(=O)c2c[nH]c3ncc(-c4cccc5nccn45)cc23)c1F [P-0018, Propane-1-sulfonic acid [2,4-difluoro-3-(5-imidazo[1,2-a]pyridin-5-yl-1H-pyrrolo[2,3-b]pyridine-3-carbonyl)-phenyl]-amide]	< 0.1 µM	< 0.1 µM	< 0.1 µM				
O=C(c1c(F)ccc(NS(=O)(=O)c2cc(F)ccc2F)c1F)c1c[nH]c2ncc(-c3cccnc3)cc12 [P-1402, N-[2,4-Difluoro-3-(5-pyridin-3-yl-1H-pyrrolo[2,3-b]pyridine-3-carbonyl)-phenyl]-2,5-difluoro-benzenesulfonamide]	< 0.1 µM	< 0.1 µM	< 0.1 µM				
O=C(c1c(F)ccc(NS(=O)(=O)c2cc(F)ccc2F)c1F)c1c[nH]c2ncc(-c3cnco3)cc12 [P-1300, N-[2,4-Difluoro-3-(5-oxazol-5-yl-1H-pyrrolo[2,3-b]pyridine-3-carbonyl)-phenyl]-2,5-difluoro-benzenesulfonamide]	< 0.1 µM	< 0.1 µM	< 0.1 µM				

Second part, led by results:

IC50 (c-Raf-1)	IC50 (B-Raf V600E)	IC50 (B-Raf)	SMILES	turbidity threshold (L, M, H) 1.4 ([1]; pH 1.5 buffer (SGF))	turbidity threshold (L, M, H) 4.5 ([1]; pH 4.5 buffer (SIF))	turbidity threshold (L, M, H) 6.8 ([1]; pH 6.8 buffer (SIF))	turbidity threshold (L, M, H) 7.4 ([1]; pH 7.4 buffer (HEPES))
< 0.1 µM	< 0.1 µM	< 0.1 µM	CS(=O)(=O)c1cncc(-c2cnc3[nH]cc(C(=O)c4c(F)ccc(NS(=O)(=O)c5cc(F)ccc5F)c4F)c3c2)c1 [P-1407, N-{2,4-Difluoro-3-[5-(5-methanesulfonyl-pyridin-3-yl)-1H-pyrrolo[2,3-b]pyridine-3-carbonyl]-phenyl}-2,5-difluoro-benzenesulfonamide]				
< 0.1 µM	< 0.1 µM	< 0.1 µM	CNS(=O)(=O)c1ccc(-c2cnc3[nH]cc(C(=O)c4c(F)ccc(NS(=O)(=O)c5cc(F)ccc5F)c4F)c3c2)cc1 [P-1706, N-{2,4-Difluoro-3-[5-(4-methylsulfamoyl-phenyl)-1H-pyrrolo[2,3-b]pyridine-3-carbonyl]-phenyl}-2,5-difluoro-benzenesulfonamide]				
< 0.1 µM	< 0.1 µM	< 0.1 µM	NS(=O)(=O)c1ccc(-c2cnc3[nH]cc(C(=O)c4c(F)ccc(NS(=O)(=O)c5cc(F)ccc5F)c4F)c3c2)cc1 [P-1707, N-{2,4-Difluoro-3-[5-(4-sulfamoyl-phenyl)-1H-pyrrolo[2,3-b]pyridine-3-carbonyl]-phenyl}-2,5-difluoro-benzenesulfonamide]				
< 0.1 µM	< 0.1 µM	< 0.1 µM	O=C(c1c(F)ccc(NS(=O)(=O)c2cc(F)ccc2F)c1F)c1c[nH]c2ncc(-c3cncnc3)cc12 [P-1500, N-[2,4-Difluoro-3-(5-pyrimidin-5-yl-1H-pyrrolo[2,3-b]pyridine-3-carbonyl)-phenyl]-2,5-difluoro-benzenesulfonamide]				
< 0.1 µM	< 0.1 µM	< 0.1 µM	O=C(c1c(F)ccc(NS(=O)(=O)c2cc(F)ccc2F)c1F)c1c[nH]c2ncc(-c3ccncc3F)cc12 [P-1405, N-{2,4-Difluoro-3-[5-(3-fluoro-pyridin-4-yl)-1H-pyrrolo[2,3-b]pyridine-3-carbonyl]-phenyl}-2,5-difluoro-benzenesulfonamide]				
< 0.1 µM	< 0.1 µM	< 1 µM	CCCS(=O)(=O)Nc1ccc(F)c(C(=O)c2c[nH]c3ncc(NC(=O)c4cccnc4)cc23)c1F [P-1800, N-{3-[2,6-Difluoro-3-(propane-1-sulfonylamino)-benzoyl]-1H-pyrrolo[2,3-b]pyridin-5-yl}-nicotinamide]				
~0.1 µM	< 0.1 µM	< 1 µM	CCCS(=O)(=O)Nc1ccc(F)c(C(=O)c2c[nH]c3ncc(NC(=O)C4C=C(C)ON4)cc23)c1F (stereo not shown) [P-1802, 5-Methyl-2,3-dihydro-isoxazole-3-carboxylic acid {3-[2,6-difluoro-3-(propane-1-sulfonylamino)-benzoyl]-1H-pyrrolo[2,3-b]pyridin-5-yl}-amide]				
